Reference: ChEMBL document CHEMBL1201862, “PubChem BioAssay data set” (2004)
Calls of active or inactive are those of the source.

Experiments:
[1] = luciferase reporter signal suppression in cells – H4 neuroglioma cells, luminescence, dose response (AID 1990); type: functional, cell-based
[2] = luciferase reporter signal reduction – luminescence, H4-C neuroglioblastoma cells, dose response (AID 2458); type: functional, cell-based;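 note: H4 neuroglioblastoma cells stably carrying a luciferase reporter gene fusion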
[3] = cells; type: functional, cell-based
[4] = Luminescence Cell-Based Dose Response HTS to Identify Inhibitors of 5'UTR Stem-Loop Driven Prion Protein mRNA Translation in H4 Neuroglioblastoma Cells. [Related pubchem assays: 1827 (Project Summary), 1813 (Primary HTS)]; type: functional
[5] = molecular target: T1, Heat shock factor protein 1 (Mus musculus, UniProt P38532); assay: decrease of HSF1-responsive luciferase luminescence – cell-based, NIH3T3, dose retest, confirmation (AID 2382); type: functional;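 note: NIH3T3 fibroblasts with HSF1-driven luciferase reporter stressed by proteasome inhibitor MG132; luminescence from HSF1-driven luciferase expression after 8 hours of MG132 stress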
T1 sequence (P38532 whole entry): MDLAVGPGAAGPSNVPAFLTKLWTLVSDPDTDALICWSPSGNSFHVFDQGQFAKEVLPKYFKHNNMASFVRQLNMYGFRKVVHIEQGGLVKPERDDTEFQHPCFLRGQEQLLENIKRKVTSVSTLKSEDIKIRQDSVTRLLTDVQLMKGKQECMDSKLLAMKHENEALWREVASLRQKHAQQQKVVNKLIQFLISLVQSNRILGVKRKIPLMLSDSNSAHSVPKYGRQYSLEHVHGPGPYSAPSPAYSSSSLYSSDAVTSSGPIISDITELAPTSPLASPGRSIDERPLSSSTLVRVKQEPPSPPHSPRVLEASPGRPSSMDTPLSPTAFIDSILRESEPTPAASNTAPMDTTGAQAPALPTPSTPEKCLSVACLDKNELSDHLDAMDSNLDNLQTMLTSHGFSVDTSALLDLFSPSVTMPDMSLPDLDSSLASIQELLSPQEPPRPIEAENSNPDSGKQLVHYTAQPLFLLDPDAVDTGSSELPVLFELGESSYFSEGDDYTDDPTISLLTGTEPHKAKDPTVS

[6] = alpha-synuclein stem-loop luciferase translation blockers – H4 neuroglioma cells, luminescence, confirmation (AID 1988); type: functional, cell-based
[7] = molecular target: Heat shock protein HSP 90-alpha (Homo sapiens, UniProt P07900); assay: Luminescence-based dose response biochemical high throughput screening assay for inhibitors of the Heat Shock Protein 90 (HSP90). [Related pubchem assays: 1831 (Summary AID.), 1846 (Confirmation screen.), 1789 (Primary screen.)]
[8] = alpha-synuclein stem-loop translation blockers – luminescence, H4 neuroglioblastoma cells, dose confirmation, confirmation (AID 2454); type: functional, cell-based;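 note: H4 neuroglioblastoma cells carrying an alpha-synuclein 5'UTR luciferase reporter; potency for inhibition of the luciferase signal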
[9] = system: Jurkat; assay: blockers of NF-kB activation in T cells – Jurkat, luciferase reporter, luminescence, B- and T-cell, dose response (AID 489004); type: functional, cell-based; details: Homo sapiens;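 note: NF-kB luciferase reporter Jurkat cells stimulated with PMA plus ionomycin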
[10] = HEK-293T viability loss, compound-treated – cell-based, uHTS hits, cytotoxicity control for B/T-cell NF-kB inhibitor project, dose response (AID 489019); type: functional;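 note: IC50 reflects cytotoxicity as loss of cell viability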
[11] = molecular target: Luciferin 4-monooxygenase (Photuris pensylvanica, UniProt Q27757); assay: inhibition of Cell Titer Glo luciferase signal – biochemical, luminescence, cherry-picks, counter-screen for HSF-1 reporter inhibitor project, dose response (AID 588847)
Chain of Luciferin 4-monooxygenase (Q27757 whole entry): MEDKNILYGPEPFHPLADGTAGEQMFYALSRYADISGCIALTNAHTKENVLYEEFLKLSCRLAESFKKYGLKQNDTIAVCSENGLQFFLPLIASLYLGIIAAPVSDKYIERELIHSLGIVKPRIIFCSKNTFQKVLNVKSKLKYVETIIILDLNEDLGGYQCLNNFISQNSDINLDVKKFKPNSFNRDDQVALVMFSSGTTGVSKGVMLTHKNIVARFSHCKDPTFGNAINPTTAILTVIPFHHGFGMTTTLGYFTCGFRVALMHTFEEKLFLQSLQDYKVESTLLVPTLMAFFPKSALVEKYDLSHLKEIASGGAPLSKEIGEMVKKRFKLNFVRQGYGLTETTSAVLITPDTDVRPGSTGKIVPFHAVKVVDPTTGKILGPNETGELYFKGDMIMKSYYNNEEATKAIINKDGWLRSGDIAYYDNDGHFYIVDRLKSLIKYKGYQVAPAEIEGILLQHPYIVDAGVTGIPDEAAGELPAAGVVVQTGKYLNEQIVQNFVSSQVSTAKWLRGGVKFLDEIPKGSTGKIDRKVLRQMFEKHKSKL

[12] = reduction of Shn3 3'UTR-driven luciferase in osteoblasts – cell-based, Clone20 osteoblasts, firefly luciferase, cherry-picked, dose response (AID 624132); type: functional;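 note: firefly luciferase luminescence from reporter carrying the Shn3 3'UTR in osteoblasts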
[13] = blockers of HIV-1 envelope-mediated cell-cell fusion – cherry-pick, dose response (AID 652057); type: functional, cell-based
[14] = blockers of HIV-1 ZM109 envelope-driven cell-cell fusion – HeLa effector, CEM target cells, luciferase, cherry-pick, dose response (AID 652058); type: functional, cell-based;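 note: luciferase signal from HIV-1 Env mediated cell-cell fusion of effector and target cells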
[15] = off-target signal loss in HeLa-CEM21 co-culture – HeLa F-luc CTL cells, cherry-picked, counter-screen for HIV-1 Env fusion inhibitor project, dose response (AID 652040); type: functional, cell-based;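 note: potency for signal decrease marking cytotoxic or nonspecific inhibition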
[16] = HIV-1 AD8 envelope cell-cell fusion blockers – cherry-pick, dose response (AID 652062); type: functional, cell-based;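 note: luciferase signal from cell-cell fusion driven by HIV-1 clade B AD8 Env; potency is for inhibitors of fusion seen as a drop in luminescence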
[17] = Shn3 3'UTR reporter signal decrease – cell-based, Clone20 osteoblasts, firefly luciferase, cherry-pick, set 2, Schnurri-3 inhibitor project, dose response (AID 720490); type: functional;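 note: actives lower the luminescence signal as inhibitors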
[18] = EF1alpha-driven Renilla reporter with control 3'UTR suppression – Clone20-Shn3RL cells, dual-Glo, cherry-pick, set 2, counter-screen for Shn3 3'UTR targeting project, dose response (AID 720724); type: functional, cell-based; details: Dual-Go Shn3RL
[19] = blockers of bursicon-stimulated LGR2 cAMP reporter – cell-based, HEK293, CRE-luciferase reporter, cherry pick, set 2, dose response (AID 743343); type: functional;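 note: transfected cells were stimulated with diluted bursicon conditioned medium after compound addition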
[20] = blockade of melanocortin 4 receptor signaling – cell-based, plate reader, cherry pick, counter-screen for LGR2 antagonist project, dose response (AID 743444); type: functional;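 note: transfected HEK 293 cells stimulated with alpha-MSH peptide; potency of inhibitors of the alpha-MSH evoked signal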
[21] = molecular target: Mothers against decapentaplegic homolog 3 (Homo sapiens, UniProt P84022); assay: blockers of Smad3 complex formation in lysate – cell lysate, secondary confirmation, chemiluminescent ELISA, HEK293 lysate, dose response (AID 1058); type: functional
Chain of Mothers against decapentaplegic homolog 3 (P84022 whole entry): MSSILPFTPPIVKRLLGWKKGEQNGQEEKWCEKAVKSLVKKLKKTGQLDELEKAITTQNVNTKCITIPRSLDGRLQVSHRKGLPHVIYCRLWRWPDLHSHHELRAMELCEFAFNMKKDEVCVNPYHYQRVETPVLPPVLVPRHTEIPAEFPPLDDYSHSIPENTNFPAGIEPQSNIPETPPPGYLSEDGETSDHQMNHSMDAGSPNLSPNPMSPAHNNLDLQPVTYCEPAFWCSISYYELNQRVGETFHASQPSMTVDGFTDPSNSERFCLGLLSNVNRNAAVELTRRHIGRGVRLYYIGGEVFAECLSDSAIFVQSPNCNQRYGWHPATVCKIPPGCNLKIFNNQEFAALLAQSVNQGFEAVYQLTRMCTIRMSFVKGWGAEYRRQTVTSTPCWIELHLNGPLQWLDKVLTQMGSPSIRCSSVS

[22] = molecular target: Serine/threonine-protein phosphatase PP1-alpha catalytic subunit (Homo sapiens, UniProt P62136); assay: inhibition of protein phosphatase 1 activity – biochemical, fluorescence, dose response (AID 2394)
Chain of Serine/threonine-protein phosphatase PP1-alpha catalytic subunit (P62136 whole entry): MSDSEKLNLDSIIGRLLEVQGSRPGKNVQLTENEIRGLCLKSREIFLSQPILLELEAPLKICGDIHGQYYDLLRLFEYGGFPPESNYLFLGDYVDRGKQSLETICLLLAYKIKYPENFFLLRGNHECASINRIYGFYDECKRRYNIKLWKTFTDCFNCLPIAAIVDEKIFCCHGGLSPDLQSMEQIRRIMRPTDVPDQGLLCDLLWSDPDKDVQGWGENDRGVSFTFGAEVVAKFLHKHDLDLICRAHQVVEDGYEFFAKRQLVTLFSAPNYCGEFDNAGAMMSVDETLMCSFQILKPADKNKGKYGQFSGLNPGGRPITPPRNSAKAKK

[23] = system: Streptococcus sp. 'group A'; assay: Streptococcus pyogenes SK(-)GAS viability under kanamycin – luminescence, BacTiterGlo, confirmation, counter-screen for streptokinase expression inhibitor project, dose response (AID 1900); type: functional, organism-based
[24] = molecular target: T2, Streptokinase A (Streptococcus pyogenes serotype M1, UniProt P10520); assay: viability-normalized secreted streptokinase activity reduction – plasminogen activation absorbance, OD405, dose response (AID 1914); type: functional, Streptococcus pyogenes M1 GAS;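 note: secreted streptokinase activity via plasminogen activation per viability signal from cell pellet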
T2 sequence (P10520 whole entry): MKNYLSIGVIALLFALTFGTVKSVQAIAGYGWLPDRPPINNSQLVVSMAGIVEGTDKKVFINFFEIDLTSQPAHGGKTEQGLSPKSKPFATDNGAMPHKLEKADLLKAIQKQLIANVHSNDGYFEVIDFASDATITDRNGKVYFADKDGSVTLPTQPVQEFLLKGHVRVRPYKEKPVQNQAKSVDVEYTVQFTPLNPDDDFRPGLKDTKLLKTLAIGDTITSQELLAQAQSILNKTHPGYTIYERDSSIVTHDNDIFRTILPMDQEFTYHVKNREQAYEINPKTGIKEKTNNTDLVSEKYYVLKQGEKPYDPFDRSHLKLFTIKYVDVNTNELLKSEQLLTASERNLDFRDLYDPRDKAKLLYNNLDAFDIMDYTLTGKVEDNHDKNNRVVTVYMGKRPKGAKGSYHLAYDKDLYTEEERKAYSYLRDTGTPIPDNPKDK

[25] = Trypanosoma cruzi growth suppression in host cells – NIH3T3 host cells, beta-gal luminescence, confirmation (AID 2044); type: functional, cell-based;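 note: intracellular parasites grown in NIH/3T3 mouse fibroblasts as host cells; luminescent beta-galactosidase reporter signal from transgenic T. cruzi replicating inside host cells; inhibitors lower the luminescence signal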
[26] = molecular target: Protein-tyrosine kinase 2-beta (Homo sapiens, UniProt Q14289);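 note: potency of inhibitors of PYK2 kinase phosphorylation of poly-GT substrate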
Chain of Protein-tyrosine kinase 2-beta (Q14289 whole entry): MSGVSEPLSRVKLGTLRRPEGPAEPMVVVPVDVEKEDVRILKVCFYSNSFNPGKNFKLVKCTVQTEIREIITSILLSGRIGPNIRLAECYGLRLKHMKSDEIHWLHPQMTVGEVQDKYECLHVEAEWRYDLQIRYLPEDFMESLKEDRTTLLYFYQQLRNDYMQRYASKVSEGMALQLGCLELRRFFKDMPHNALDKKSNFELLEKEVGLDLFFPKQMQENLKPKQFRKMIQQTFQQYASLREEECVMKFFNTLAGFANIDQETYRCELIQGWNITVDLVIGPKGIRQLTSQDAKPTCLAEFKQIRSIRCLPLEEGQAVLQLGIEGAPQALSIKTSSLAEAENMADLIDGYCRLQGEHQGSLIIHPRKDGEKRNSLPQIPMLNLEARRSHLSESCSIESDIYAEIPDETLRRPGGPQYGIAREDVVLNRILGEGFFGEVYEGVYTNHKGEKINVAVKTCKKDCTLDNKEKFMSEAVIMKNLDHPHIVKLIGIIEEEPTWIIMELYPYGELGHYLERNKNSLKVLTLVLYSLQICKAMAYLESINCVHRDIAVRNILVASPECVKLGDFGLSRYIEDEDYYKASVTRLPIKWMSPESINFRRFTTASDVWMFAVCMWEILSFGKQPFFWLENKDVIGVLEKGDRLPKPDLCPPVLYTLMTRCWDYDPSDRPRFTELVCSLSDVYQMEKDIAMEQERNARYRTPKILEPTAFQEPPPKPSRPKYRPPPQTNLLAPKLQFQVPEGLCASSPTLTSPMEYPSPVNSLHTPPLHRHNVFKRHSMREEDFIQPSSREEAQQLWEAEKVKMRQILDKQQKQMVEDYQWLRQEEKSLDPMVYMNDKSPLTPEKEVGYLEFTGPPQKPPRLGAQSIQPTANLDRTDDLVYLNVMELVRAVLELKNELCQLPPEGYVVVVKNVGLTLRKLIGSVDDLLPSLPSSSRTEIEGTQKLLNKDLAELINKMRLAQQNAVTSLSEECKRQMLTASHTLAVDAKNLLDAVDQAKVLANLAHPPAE

[27] = molecular target: Serine/threonine-protein phosphatase (Homo sapiens, UniProt Q9BPW0); assay: inhibition of protein phosphatase 5 activity – biochemical, fluorescence, dose response (AID 2395)
Chain of Serine/threonine-protein phosphatase (Q9BPW0 whole entry): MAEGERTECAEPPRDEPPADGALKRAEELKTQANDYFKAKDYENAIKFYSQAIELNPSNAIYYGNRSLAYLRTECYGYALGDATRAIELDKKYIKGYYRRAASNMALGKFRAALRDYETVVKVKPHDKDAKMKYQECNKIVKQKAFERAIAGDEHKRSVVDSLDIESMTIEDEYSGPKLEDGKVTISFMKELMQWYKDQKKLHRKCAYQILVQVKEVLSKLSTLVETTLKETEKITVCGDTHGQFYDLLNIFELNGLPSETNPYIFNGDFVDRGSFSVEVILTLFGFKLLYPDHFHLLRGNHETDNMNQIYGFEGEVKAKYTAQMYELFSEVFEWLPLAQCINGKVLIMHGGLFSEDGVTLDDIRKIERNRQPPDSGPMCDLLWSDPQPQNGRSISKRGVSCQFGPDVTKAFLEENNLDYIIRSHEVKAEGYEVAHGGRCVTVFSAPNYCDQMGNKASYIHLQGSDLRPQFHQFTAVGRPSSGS

[28] = NIH3T3 cell viability loss – ATP luminescence, mouse fibroblasts, counter-screen, dose response (AID 2010); type: functional, cell-based;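 note: cells exposed to compound for about 90 hours before reading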
[29] = mitochondrial function rescue without frataxin homolog – Friedreich's ataxia, plus single-dose screen, dose response (AID 1465); type: functional;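 note: yeast depleted of Yfh1p frataxin homolog grown on glycerol needing respiration; WST-1 tetrazolium dye reduction as measure of cellular dehydrogenase metabolic activity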
[30] = system: Streptococcus; assay: GAS UMAA2166 growth inhibition – luminescence, BacTiterGlo, counter-screen for streptokinase expression inhibitor project, dose response (AID 1915); type: functional, organism-based;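 note: potency for reduction of bacterial viability or growth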
[31] = molecular target: T3, Apoptotic protease-activating factor 1 (Homo sapiens, UniProt O14727); type: functional
T3 sequence (O14727 whole entry): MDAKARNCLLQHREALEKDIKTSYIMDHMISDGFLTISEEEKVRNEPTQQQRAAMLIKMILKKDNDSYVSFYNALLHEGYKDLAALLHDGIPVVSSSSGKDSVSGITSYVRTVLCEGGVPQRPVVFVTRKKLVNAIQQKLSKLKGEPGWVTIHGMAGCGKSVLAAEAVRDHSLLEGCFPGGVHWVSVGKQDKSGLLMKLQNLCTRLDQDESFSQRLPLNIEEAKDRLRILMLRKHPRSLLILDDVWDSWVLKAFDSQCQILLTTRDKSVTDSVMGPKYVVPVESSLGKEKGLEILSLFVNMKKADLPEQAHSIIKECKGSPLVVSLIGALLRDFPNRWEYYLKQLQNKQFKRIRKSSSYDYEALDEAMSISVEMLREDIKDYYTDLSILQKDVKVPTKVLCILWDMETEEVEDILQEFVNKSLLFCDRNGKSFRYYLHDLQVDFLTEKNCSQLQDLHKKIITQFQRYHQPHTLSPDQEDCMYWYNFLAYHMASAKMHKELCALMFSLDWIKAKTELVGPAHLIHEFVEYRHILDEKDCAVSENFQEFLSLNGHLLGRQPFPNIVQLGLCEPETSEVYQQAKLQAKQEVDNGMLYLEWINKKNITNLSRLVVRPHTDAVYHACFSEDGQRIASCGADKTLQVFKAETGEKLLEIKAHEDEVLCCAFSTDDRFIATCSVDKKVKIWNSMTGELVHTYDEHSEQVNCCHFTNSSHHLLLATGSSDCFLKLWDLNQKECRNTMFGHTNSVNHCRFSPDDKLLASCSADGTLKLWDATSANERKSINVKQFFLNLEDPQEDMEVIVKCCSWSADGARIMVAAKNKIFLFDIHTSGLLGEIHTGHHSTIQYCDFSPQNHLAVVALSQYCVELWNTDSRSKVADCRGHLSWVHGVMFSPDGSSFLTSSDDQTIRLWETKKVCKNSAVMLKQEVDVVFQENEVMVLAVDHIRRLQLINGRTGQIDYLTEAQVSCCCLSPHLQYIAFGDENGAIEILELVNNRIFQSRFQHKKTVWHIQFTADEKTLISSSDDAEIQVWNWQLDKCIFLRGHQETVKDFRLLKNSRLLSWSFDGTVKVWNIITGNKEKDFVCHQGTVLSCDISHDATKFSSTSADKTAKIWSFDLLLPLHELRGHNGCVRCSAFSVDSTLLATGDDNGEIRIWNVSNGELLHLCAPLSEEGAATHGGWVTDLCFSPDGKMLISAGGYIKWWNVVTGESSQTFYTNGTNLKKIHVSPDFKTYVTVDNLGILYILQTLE

[32] = system: INS1; assay: INS-1E survival protection against cytokine death – cell-based, luminescence, retest, dose response (AID 449756); type: functional; details: Rattus norvegicus;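 note: cell death triggered by IL-1 beta plus TNF-alpha plus IFN-gamma mixture; protective hits raise ATP signal compared with cytokine alone wells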

Structure (SMILES): O=C(CN1C(=O)c2ccccc2S1(=O)=O)c1ccc2c(c1)OCCCO2
- EC50 [1]: < 100 nM (active)
- EC50 [2]: 15 nM (active)
- EC50 [3]: 21 nM (active)
- EC50 [4]: < 100 nM (active)
- EC50 [5]: < 160 nM (active)
- EC50 [6]: < 100 nM (active)
- IC50 [7]: 816 nM (active)
- EC50 [8]: 16 nM (active)
- IC50 [9]: < 160 nM (active)
- IC50 [10]: > 80 µM (inactive)
- AC50 [11]: > 52 µM (inactive)
- AC50 [12]: 262 nM (active)
- AC50 [13]: < 260 nM (active)
- AC50 [14]: 725 nM (active)
- AC50 [15]: < 260 nM (active)
- AC50 [16]: < 260 nM (active)
- AC50 [17]: 631 nM (active)
- AC50 [18]: 50.3 µM (active)
- AC50 [19]: < 68 nM (active)
- AC50 [20]: 69.5 nM (active)

Structure (SMILES): O=C(O)c1cc2cc(O)ccc2[nH]1
- IC50 [21]: 1.77 µM (not active)

Structure (SMILES): Cc1ccc(Cl)cc1NC1=C/C(=N\S(=O)(=O)c2cccs2)c2ccccc2C1=O
- IC50 [22]: 38.9 µM (not active)
- EC50 [23]: 427 nM (active)
- EC50 [24]: > 150 µM (not active)
- EC50 [25]: 1.6 µM (active)
- IC50 [26]: > 69.5 µM (not active)
- IC50 [27]: 2.49 µM (active)
- EC50 [28]: 3.19 µM (active)
- EC50 [29]: > 100 µM (active)
- EC50 [30]: 2.98 µM (active)
- IC50 [31]: 1.85 µM (active)
- AC50 [32]: 608 nM (active)
